From ChEMBL document CHEMBL3593242, “Crystal structures of the apo form and a complex of human LMW-PTP with a phosphonic acid provide new evidence of a secondary site potentially related to the anchorage of natural substrates” (Bioorg Med Chem, 2015)

Experiments:
[1] = target: T1, Low molecular weight phosphotyrosine protein phosphatase (Mus musculus, UniProt Q9D358); test: Competitive inhibition of mouse LMW-PTP expressed in Escherichia coli using pNPP substrate by Dixon plot
T1 sequence (Q9D358 whole entry): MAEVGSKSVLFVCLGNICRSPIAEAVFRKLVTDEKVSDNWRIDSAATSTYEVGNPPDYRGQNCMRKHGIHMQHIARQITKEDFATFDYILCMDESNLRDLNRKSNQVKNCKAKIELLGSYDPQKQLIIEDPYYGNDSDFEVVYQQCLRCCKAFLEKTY

[2] = Inhibition of bovine heart acid phosphatase; set-up: species or system Bos taurus
[3] = target: Alkaline phosphatase, placental type (Homo sapiens, UniProt P05187); test: Inhibition of human placental alkaline phosphatase using p-nitrophenyl phosphate substrate
[4] = target: T2, Ectonucleotide pyrophosphatase/phosphodiesterase family member 3 (Bos taurus, UniProt P15396); test: Inhibition of bovine intestinal 5'-nucleotide phosphodiesterase using 4-nitrophenyl phenylphosphonate substrate by spectrophotometry
T2 sequence (P15396 whole entry): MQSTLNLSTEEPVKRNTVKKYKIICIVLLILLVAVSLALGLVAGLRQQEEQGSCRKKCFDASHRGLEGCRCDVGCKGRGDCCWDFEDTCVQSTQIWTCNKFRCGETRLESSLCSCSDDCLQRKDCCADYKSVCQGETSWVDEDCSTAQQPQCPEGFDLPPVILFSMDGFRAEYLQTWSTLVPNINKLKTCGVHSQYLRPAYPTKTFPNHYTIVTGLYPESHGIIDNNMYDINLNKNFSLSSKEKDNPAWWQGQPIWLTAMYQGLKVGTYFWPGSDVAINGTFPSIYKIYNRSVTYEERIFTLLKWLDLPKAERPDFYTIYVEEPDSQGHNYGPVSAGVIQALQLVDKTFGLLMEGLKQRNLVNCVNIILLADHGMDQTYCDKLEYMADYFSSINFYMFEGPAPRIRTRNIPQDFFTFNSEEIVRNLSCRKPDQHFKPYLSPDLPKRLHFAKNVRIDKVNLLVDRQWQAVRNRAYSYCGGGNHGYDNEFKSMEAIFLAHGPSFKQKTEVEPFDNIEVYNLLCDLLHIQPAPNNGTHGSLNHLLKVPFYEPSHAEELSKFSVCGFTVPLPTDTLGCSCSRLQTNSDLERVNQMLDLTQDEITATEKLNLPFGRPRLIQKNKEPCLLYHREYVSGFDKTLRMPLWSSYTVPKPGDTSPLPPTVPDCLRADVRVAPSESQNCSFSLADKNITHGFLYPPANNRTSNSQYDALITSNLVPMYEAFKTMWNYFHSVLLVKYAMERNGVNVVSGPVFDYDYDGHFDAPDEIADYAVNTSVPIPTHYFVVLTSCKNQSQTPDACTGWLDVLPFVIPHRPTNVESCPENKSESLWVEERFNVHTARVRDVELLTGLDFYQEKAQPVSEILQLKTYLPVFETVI

[5] = Inhibition of Yersinia-protein YopH using pNPP substrate
[6] = target: T3, Tyrosine-protein phosphatase non-receptor type 1 (Homo sapiens, UniProt P18031); test: Inhibition of PTP1B (unknown origin) using […] substrate
T3 sequence (P18031 whole entry): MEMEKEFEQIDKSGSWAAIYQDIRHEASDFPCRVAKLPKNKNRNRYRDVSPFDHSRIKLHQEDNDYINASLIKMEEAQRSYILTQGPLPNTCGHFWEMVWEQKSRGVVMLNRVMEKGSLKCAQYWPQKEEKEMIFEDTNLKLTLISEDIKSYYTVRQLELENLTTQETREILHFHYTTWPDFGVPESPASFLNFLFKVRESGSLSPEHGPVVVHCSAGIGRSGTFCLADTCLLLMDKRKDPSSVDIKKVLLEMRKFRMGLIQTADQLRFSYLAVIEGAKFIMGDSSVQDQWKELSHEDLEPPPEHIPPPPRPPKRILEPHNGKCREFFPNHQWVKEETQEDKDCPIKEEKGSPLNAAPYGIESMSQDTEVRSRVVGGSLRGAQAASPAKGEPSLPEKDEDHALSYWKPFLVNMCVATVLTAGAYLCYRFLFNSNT

Alkaline phosphatase, placental type, sequence (P05187 whole entry): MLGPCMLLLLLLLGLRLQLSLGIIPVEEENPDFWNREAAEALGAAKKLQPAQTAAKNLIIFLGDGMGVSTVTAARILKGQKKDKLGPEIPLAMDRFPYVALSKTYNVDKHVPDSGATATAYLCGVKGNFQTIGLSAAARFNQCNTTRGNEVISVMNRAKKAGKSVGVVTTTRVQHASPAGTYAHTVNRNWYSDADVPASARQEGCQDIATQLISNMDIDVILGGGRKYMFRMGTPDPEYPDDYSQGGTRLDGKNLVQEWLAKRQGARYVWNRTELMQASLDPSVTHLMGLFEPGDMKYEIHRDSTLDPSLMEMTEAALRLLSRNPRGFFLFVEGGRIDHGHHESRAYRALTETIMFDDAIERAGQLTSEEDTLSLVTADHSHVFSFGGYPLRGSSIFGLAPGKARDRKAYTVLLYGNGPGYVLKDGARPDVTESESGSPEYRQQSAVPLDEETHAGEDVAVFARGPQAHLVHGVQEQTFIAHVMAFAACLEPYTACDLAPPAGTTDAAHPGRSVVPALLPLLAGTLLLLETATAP

Work on O=[N+]([O-])c1ccc(CP(=O)(O)O)cc1 yielded a Ki [1] of 124 µM.

With O=P(O)(O)Cc1ccc(CCl)cc1 the Ki [1] was 47 µM.

In the case of O=P(O)(O)Cc1ccccc1 [BENZYLPHOSPHONIC ACID], the Ki [2] is reported as 4600 µM, the Ki [3] is reported as 580 µM and the Ki [4] is reported as 1400 µM. For the same molecule, the Ki [5] was 5000 µM and the Ki [6] was 3000 µM.
